Experimental data as given in US9675664B2, “Compositions, formulations and methods of treating preeclampsia-type disorders of pregnancy” (Women & Infants' Hospital of Rhode Island, priority 2009, dated 2017).

What was measured:
[1] = tested on: endothelial cells (EC) and trophoblasts (HTR) crosstalk; assay: In vitro endothelial cell-trophoblast co-culture tube (vacuole) formation assay on matrigel with pregnancy serum; assay type: cell-based, human; conditions: for rescue of mild PE serum induced disrupted EC-HTR8 crosstalk (tube assay): mild preeclampsia serum (mPE), TTR preincubated at 0.1, 1.0, 10 μg/ml of serum; for rescue of severe PE serum induced disrupted EC-HTR8 crosstalk (tube assay): severe preeclampsia serum (sPE), TTR preincubated at 0.1, 1.0, 10 microgram/ml of serum
Description: The in vitro assay described in this example is based on the premise that during normal pregnancy, fetal derived trophoblasts called the “invasive cytotrophoblasts” invade the maternal decidua and the endothelial cell lined spiral arteries. This phenomenon can be restructured using serum from pregnancy as physiological milieu and culturing human umbilical vein endothelial cells and trophoblasts on basement membrane such as matrigel. […] For additional information see U.S. Provisional Patent Application No. 61/063,491 filed Feb. 4, 2008 and/or Kalkunte, In Vitro and In Vivo Evidence for Lack of Vascular Remodeling by Third Trimester Trophoblasts, Placenta 29: 871-78 (2008).
Recombinantly produced TTR (detected by SDS-PAGE electrophoresis and purity 96%) was obtained from AbD Serotec, Raleigh, N.C. 27604, USA. Recombinant TTR obtained in lyophilized form was reconstituted with sterile phosphate-saline buffer to obtain a final concentration of 1 mg/ml and maintained at >pH 7.0. The solutions were stored as aliquots frozen at −80° C. until use. Thirty minutes prior to experimentation, the aliquots of TTR were thawed, then mixed with serum and incubated at 37° C. for 30 minutes.
The in vitro method further includes incubating a co-culture of human endothelial cells and human trophoblast cells in the presence of serum or plasma obtained from a pregnant person for a period of time sufficient to permit vacuolization (also referred to as “capillary formation” and “tube formation” in FIGS. 2-4), and after incubation determining whether substantial vacuolization in the co-culture has occurred by quantification as described in Example 3.
During pregnancy, angiogenesis is characterized by spiral artery remodeling for which trophoblast invasion into these maternal blood vessels is a prerequisite. The data of FIG. 2 show an in vitro model of interaction of trophoblasts and endothelial cells that mimics spiral artery remodeling. Specifically, 2.5×10^4 endothelial cells labeled red and 2.5×10^4 trophoblasts, labeled green, were co-cultured on matrigel coated plates and stimulated with either NPS (normal pregnancy serum) or severe PES (Preeclampsia Serum) as described above. In the absence of exogenous TTR, serum from severe (FIG. 2 Panel B #5 and C #9) preeclampsia patients blocks the “cross-talk” between endothelial-trophoblast cells, causing obvious differences in architecture as compared to the same cells stimulated under the same conditions with NPS serum (sample L1045; FIG. 2 Panel A, #1).
Briefly, 2.5×10^4 endothelial cells labeled red and 2.5×10^4 trophoblasts, each from different trimesters labeled green (FIG. 2), were co-cultured on matrigel coated plates and stimulated with either NPS or mild PES as described above. […] The number of vacuoles (or tubes) formed per sample were counted and represented in the graph (FIG. 4, mPE with and without TTR). […] Statistical significance of experimental differences was assessed using Student's paired t-test. […]
The in vitro studies conducted in Example 2 were quantified by counting the number of tube like structures termed as “vacuole” under fluorescence microscope (Nikon Eclipse TS 100 coupled with CCD camera) in four different fields at 4× magnification. […]

Pregnant IL-10−/− mice = assay: In vivo rescue of PE serum induced preeclampsia-like symptoms in pregnant IL-10-/- mice
Method: Recombinantly produced TTR (detected by SDS-PAGE electrophoresis and purity 96%) was obtained from AbD Serotec, Raleigh, N.C. 27604, USA. Recombinant TTR obtained in lyophilized form was reconstituted with sterile phosphate-saline buffer to obtain a final concentration of 1 mg/ml and maintained at >pH 7.0. The solutions were stored as aliquots and frozen at −80° C. until use. Thirty minutes prior to experimentation, the aliquots of TTR were thawed, then mixed with 100 μl of PE serum samples. Pregnant IL-10^−/− mice (C57BL/6, Jackson Labs, USA) were then injected intraperitoneally on gestational day (g.d.) 10 at a TTR dose of 20 microgram/mouse. The gestational period in mice is 20 days. Similarly, 100 μl PE serum or normal pregnancy serum was administered to different set of animals as control. On g.d.16/17, urine and serum samples were collected from each mouse, and blood pressure measurements were taken. Blood pressure was taken by an established tail-cuff method which utilizes a programmed sphygmomanometer. The animals adapted for 5 min using a warming test chamber (IITC Life Science Inc, Woodland Hills, Calif.) at controlled temperature (35° C.). The measurements were carried out on day 17 of pregnancy using DigiMed blood pressure analyzer, (MicroMed, Louisville, Ky., 40222-4683). Each measurement of blood pressure is an average of three readings at 1 min intervals from a number of animals (˜3-5 each). Systolic blood pressure was compared among non-pregnant and pregnant mice. All animals were age matched. Data was analyzed using Digi-Med® System Integrator™ Model 400 (DMSI-400).
Total urinary albumen was measures using Albumin (mouse) ELISA kit (ALPCO Diagnostics, Salem, N.H.) and urinary creatinine was measured using Metra Creatinine Kit (Quidel Corporation, San Diego, Calif.). Protinuria as represented as a ration of urinary albumin to creatinine (expressed as μg/mg). (Baseline values seen in mice range from 100-400 μg/mg.)
On g.d. 17 the mice were euthanized, the uterine horns were extracted, photographed and pregnancy outcomes were recorded. […] 10 in IL10^−/− mice. The effects in response to only one administration of serum (100 μl) were evaluated on g.d. 17.

[2] = endogenous TTR; cited from earlier work
[3] = sPE serum 100 μl i.p. on g.d. 10 with co-administered TTR 20 microgram/mouse, evaluated g.d. 17

Row | Substance | rescue of mild PE serum induced disrupted EC-HTR8 crosstalk (tube assay) [1] | rescue of mild PE serum induced disrupted EC-HTR8 crosstalk (tube assay) ([1]; listed as Recombinant TTR) | effect on NPS mediated tube formation ([1]; normal pregnancy serum (NPS), TTR 0.1, 1.0, 10 microgram/ml of serum) | rescue of severe PE serum induced disrupted EC-HTR8 crosstalk (tube assay) [1] | rescue of severe PE serum induced disrupted EC-HTR8 crosstalk (tube assay) ([1]; listed as Recombinant TTR) | TTR levels in mouse serum (SELDI-TOF relative intensity) (Pregnant IL-10−/− mice; reduction induced by severe preeclampsia serum, FIG. 6) | intrauterine growth restriction (fetal weight) (Pregnant IL-10−/− mice; [3]) | systolic blood pressure (hypertension) (Pregnant IL-10−/− mice; [3]) | proteinuria (urinary albumin to creatinine ratio) (Pregnant IL-10−/− mice; sPE serum 100 μl i.p. on g.d. 10 with co-administered TTR 20 microgram/mouse, urine g.d. 16/17) | half life [2]
1 | transthyretin [recombinant TTR] | substantially rescues | rescues mPE serum induced disruption | no significant effect | substantially rescues | rescues sPE serum induced disruption | rescued | rescues sPE serum induced anomalies | rescues sPE serum induced anomalies | rescues sPE serum induced anomalies | –
2 | transthyretin [endogenous TTR] | – | – | – | – | – | – | – | – | – | approximately 2 days
